This is an account of results in publication PMC6107785, “Thiodipeptides targeting the intestinal oligopeptide transporter as a general approach to improving oral drug delivery” (European Journal of Medicinal Chemistry, 2018).

Structures can show the parent of a compound that is named as a salt. Where two headings read alike, the source gives them in different places. Peptide text beside a SMILES is read from it.

A short description of data set [1]: Caco-2 monolayer apical to basolateral transport. The class given is in vitro ADME. The following applies: human, 2 mM prodrug, mean ± RSD, read-out: Overall Papp. The procedure: Prodrugs that generated robust trans-stimulated efflux in oocytes were further in a Caco-2 monolayer assay to investigate further the extent and rate of trans-epithelial transport. […] Apical to basolateral transport of 2 mM pro-drug, applied to the apical side, was monitored by high performance liquid chromatography (HPLC) after 1 h. The presence or absence of excess Gly-Gln allowed us to determine both the overall and PepT1 specific permeability (Table 2). […] The PepT1 mediated Papp values are of similar magnitude to known PepT1 (pro)drug substrates.
(§1) The Ki, trans-stimulation efflux and Caco-2 assays were performed as described previously.
A general note: Passage across Caco-2 layers is used to estimate intestinal permeability.

Data set [2] is described as follows: Oral pharmacokinetics in male Sprague-Dawley rats. As to conditions: for Cmax / Tmax: rat plasma.
Experimental: Animals were given free access to food and water throughout the study and maintained under a 12-h light/dark cycle with temperature and humidity controlled according to Home Office regulations.
Blood samples (230 μL) were taken from the carotid artery at the following time points and placed in heparinized tubes: predose, 0.25, 0.5, 1, 2, 4, 8 and 24 h post dose. After the final time point the animals were sacrificed by an overdose of anaesthetic.
Blood samples were centrifuged to obtain the plasma, which was transferred to a separate labelled container. Aliquots from the individual time points for the three animals were analyzed singly. 80 μL of plasma was diluted with 20 μL of 1:1 ACN:water, then 800 μL chilled ACN was added, samples briefly vortex mixed and the centrifuged at 13000 rpm for 5 min at 4 °C. 500 μL of the resultant supernatant was further diluted with 500 μL water.
20 μL sample was analyzed by LC-MS/MS using a C18 5 μm Gemini UHPLC column running a gradient of 90% 0.04% acetic acid in water to 90% ACN over 3 min at a flow rate of 0.5 mL min^−1. MS data was acquired under multiple reaction monitoring conditions using a turbo spray ion source. The concentration in the plasma was determined by comparison to standard curves of the administered compound prepared in blank plasma matrices and treated in an identical manner to the samples.
For data set [3], the target named is T1, rabbit PepT1 (Oryctolagus cuniculus, UniProt P36836).
T1 construct: expressed in transfected cells; host or cells: Xenopus laevis oocytes
T1 sequence (P36836 1-707): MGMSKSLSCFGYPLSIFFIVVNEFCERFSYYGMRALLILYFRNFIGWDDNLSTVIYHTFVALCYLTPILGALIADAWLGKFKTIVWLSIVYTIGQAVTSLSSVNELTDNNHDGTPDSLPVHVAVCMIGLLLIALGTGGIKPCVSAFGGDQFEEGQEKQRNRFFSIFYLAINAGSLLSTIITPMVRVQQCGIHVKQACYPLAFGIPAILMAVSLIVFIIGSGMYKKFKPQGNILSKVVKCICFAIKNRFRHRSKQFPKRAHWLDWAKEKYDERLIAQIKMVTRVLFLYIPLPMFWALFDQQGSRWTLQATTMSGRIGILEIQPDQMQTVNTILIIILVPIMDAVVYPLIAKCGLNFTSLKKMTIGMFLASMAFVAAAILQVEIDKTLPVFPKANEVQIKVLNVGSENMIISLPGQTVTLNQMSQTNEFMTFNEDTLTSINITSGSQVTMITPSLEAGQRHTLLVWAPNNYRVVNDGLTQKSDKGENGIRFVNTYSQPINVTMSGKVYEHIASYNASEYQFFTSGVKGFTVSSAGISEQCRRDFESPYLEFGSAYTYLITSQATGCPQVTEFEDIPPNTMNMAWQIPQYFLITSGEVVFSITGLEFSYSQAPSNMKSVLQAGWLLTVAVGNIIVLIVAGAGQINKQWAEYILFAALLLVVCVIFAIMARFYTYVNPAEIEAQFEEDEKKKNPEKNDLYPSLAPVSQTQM
Kind of data set: Inhibition of radiolabelled D-Phe-L-Gln uptake in Xenopus laevis oocytes expressing rabbit PepT1 (binding affinity). The following applies: oocytes expressing rabbit PepT1, pH 5.5 assay buffer. As for the experimental part: as §1

Data set [4] in a line: Stability in rat liver homogenate. Type of data set: in vitro ADME. As to conditions: 37 °C; for half-life at 0.5 mM: male, rat, rat liver homogenate, pH 7.5, 0.5 mM compound, read-out: Rat liver homgenate t1/2 (converted). As for the experimental part: Fresh rat liver homogenate was prepared by isolating liver from euthanized male rats, according to approved Home Office procedures. The liver was chopped with scissors and rinsed with medium (0.25 M sucrose, 25 mM KCl, 5 mM MgCl2 and 50 mM Tris/HCl, pH7.5) to remove trapped blood. The liver was then homogenized in fresh medium with a loose-fitting dounce-type homogenizer and kept on ice. Liver homogenate was incubated with either 0.5 mM compound 1 or 3, or L-Trp-L-Ala as a positive control, at 37 °C. 250 μl aliquots of the homogenate were taken at 0, 0.25, 0.5, 1, 2, 6 and 24 h. The samples were precipitated by addition an equal volume of 3% perchloric acid and centrifugation at 17000g for 5 min. The perchloric acid was neutralized with 250 μl of 1 M KOH, and the sample subjected to a freeze/thaw cycle to precipitate the KClO4 salt before again being centrifuged. The supernatant was then analyzed by HPLC as for the Caco-2 permeability studies, and the half-life of the compounds calculated according to the method of Vig et al..

The target in data set [5] is T1, rabbit PepT1. Kind of data set: Trans-stimulation efflux of [3H]-D-Phe-L-Gln from rabbit PepT1 expressing oocytes. The following applies: 10 mM prodrug, [3H]-D-Phe-L-Gln efflux, compared to GlyGln. The class given is cell-based. As for the experimental part:
Trans-stimulation assays were performed using radiolabelled [^3H]-D-Phe-L-Gln efflux from rabbit PepT1 expressing oocytes in the presence of 10 mM pro-drug. As controls, 10 mM Gly-L-Gln (a standard PepT1 substrate) or buffer lacking a substrate (negative control) were used.
as §1

In data set [6] the target is T1, rabbit PepT1. Also on record: method as in PMID 19262922. The following applies: 10 mM prodrug, [3H]-D-Phe-L-Gln efflux; previously reported data ref 16; cited from earlier work.
For data set [7] the following is noted: humans; cited from earlier work.
The conditions of data set [8]: rats; cited from earlier work.
For data set [9] the following is noted: pH 5.5.

Molecule `CC(=O)N[C@H]1[C@H]([C@H](O)[C@H](O)COC(=O)C[C@H](NC(=S)[C@H](C)N)C(=O)O)OC(C(=O)O)=C[C@@H]1NC(=N)N` (as salt: salt) (hydrate or solvate) [Compound 9, (4S,5R,6R)-5-acetamido-6-((1R,2R)-3-((S)-3-((S)-2-aminopropanethioamido)-3-carboxypropanoyloxy)-1,2-dihydroxypropyl)-4-guanidino-5,6-dihydro-4H-pyran-2-carboxylic acid] yielded a melting point of 210 to 212 °C.

`C[C@H](N)C(=S)N[C@@H](COC(=O)C[C@@H](CN)c1ccc(Cl)cc1)C(=O)O` (as salt: salt) (hydrate or solvate) [Compound 10, (S)-3-((R)-4-amino-3-(4-chlorophenyl)butanoyloxy)-2-((S)-2-aminopropanethioamido)propanoic acid] came in with a melting point of 112 to 115 °C.

`COc1c(C)c2c(c(O)c1C/C=C(\C)CCC(=O)OC[C@H](NC(=S)[C@H](C)N)C(=O)O)C(=O)OC2` (as salt: salt) (hydrate or solvate) [Compound 11, (S)-2-((S)-2-aminopropanethioamido)-3-((E)-6-(4-hydroxy-6-methoxy-7-methyl-3-oxo-1,3-dihydroisobenzofuran-5-yl)-4-methylhex-4-enoyloxy)propanoic acid] gave a melting point of 140 to 143 °C.

In turn, `CC(C)NC[C@@H](COc1ccc(CC(N)=O)cc1)OC(=O)C[C@H](NC(=S)[C@H](C)N)C(=O)O` (as salt: salt) [Compound 8, (S)-4-((S)-3-(4-(2-amino-2-oxoethyl)phenoxy)-1-(isopropylamino)propan-2-yloxy)-2-((S)-2-aminopropanethioamido)-4-oxobutanoic acid] came in with a melting point of 118 to 121 °C.

In the case of `CC(C)Cc1ccc([C@@H](C)C(=O)OC[C@H](NC(=S)[C@H](C)N)C(=O)O)cc1` [Compound 1], in data set [1], the Papp at 1 h, 2 mM was 37 ± 2 nm/s. Besides, in data set [2] (male, Sprague-Dawley, rat, plasma, po, 10 mg/kg), the area under the curve (AUC) was 0.5 ± 0.1 µg·h/mL. The Cmax in data set [2] (male, Sprague-Dawley, rat, plasma, po, 10 mg/kg, CMax, 1 at 10 mg kg^−1 oral, assayed compound intact 1) was determined as 0.2 ± 0.04 µg/mL. The Tmax in [2] (male, Sprague-Dawley, rat, plasma, po, 10 mg/kg, 1 at 10 mg kg^−1 oral, assayed compound intact 1) stood at 1 h. Further, the inhibitory constant (Ki) at rabbit PepT1 [3] was 260 ± 30 µM. In data set [4], the half-life at 0.5 mM is greater than 17 h. The “Trans-stimulated efflux?” value on rabbit PepT1 [5] is “Yes”.

With `C[C@H](N)C(=S)N[C@@H](COC(=O)CC1(CN)CCCCC1)C(=O)O` [Compound 2, (S)-3-[2-(1-Aminomethyl-cyclohexyl)-acetoxy]-2-((S)-2-amino-thiopropionylamino)-propionic acid], the Papp at 1 h, 2 mM in [1] is 6 ± 1 nm/s. On rabbit PepT1 [3], this molecule returned a Ki of 1010 ± 330 µM. Also, the “Trans-stimulated efflux?” value at rabbit PepT1 [5] is reported as “Yes”.

For the molecule `CC(C)c1cccc(C(C)C)c1OC(=O)C[C@H](NC(=S)[C@H](C)N)C(=O)O` [Compound 3, (S)-2-((S)-2-Amino-thiopropionylamino)-succinic acid 4-(2,6-diisopropyl-phenyl) ester], the Cmax was 16.3 ± 1.8 µg/mL in [2] (3 at 7.6 mg kg^−1 oral, assayed compound intact 3) and 16.7 µg/mL in data set [2] (male, Sprague-Dawley, rat, plasma, po, 7.6 mg/kg, CMax, 3 at 7.6 mg kg^−1 oral, assayed compound intact 3). The AUC in data set [2] (male, Sprague-Dawley, rat, plasma, po, 7.6 mg/kg) was found to be 3.2 ± 1.4 µg·h/mL. For the same molecule, the Tmax in data set [2] (male, Sprague-Dawley, rat, plasma, po, 7.6 mg/kg, 3 at 7.6 mg kg^−1 oral, assayed compound intact 3) was determined as 5.2 ± 0.8 h. For the same molecule, the inhibition constant Ki on rabbit PepT1 [3] was determined as 920 ± 190 µM. Also, in data set [4] (0.5 mM compound), the “Rat liver homgenate t1/2” value was determined as 7.3 h. In addition, the half-life at 0.5 mM in data set [4] is 7 h. Also, at rabbit PepT1 [5], the “Trans-stimulated efflux?” value is reported as “Yes”.

Consider `COc1ccc2cc(CC/C(C)=N/OCCOC(=O)C[C@H](NC(=S)[C@H](C)N)C(=O)O)ccc2c1` [Compound 6], for which the “Trans-stimulated efflux?” value at rabbit PepT1 [6] was “Yes”.

For `CC(C)NC[C@@H](COc1ccc(CC(N)=O)cc1)OC(=O)C[C@H](NC(=S)[C@H](C)N)C(=O)O` [Compound 8, (S)-4-((S)-3-(4-(2-amino-2-oxoethyl)phenoxy)-1-(isopropylamino)propan-2-yloxy)-2-((S)-2-aminopropanethioamido)-4-oxobutanoic acid], the Ki on rabbit PepT1 [3] turned out to be 440 ± 150 µM. In addition, on rabbit PepT1 [5], the “Trans-stimulated efflux?” value is “No”.

The molecule `CC(=O)N[C@H]1[C@H]([C@H](O)[C@H](O)COC(=O)C[C@H](NC(=S)[C@H](C)N)C(=O)O)OC(C(=O)O)=C[C@@H]1NC(=N)N` [Compound 9, (4S,5R,6R)-5-acetamido-6-((1R,2R)-3-((S)-3-((S)-2-aminopropanethioamido)-3-carboxypropanoyloxy)-1,2-dihydroxypropyl)-4-guanidino-5,6-dihydro-4H-pyran-2-carboxylic acid] showed a Ki on rabbit PepT1 [3] of 130 ± 20 µM. Further, at rabbit PepT1 [5], the “Trans-stimulated efflux?” value was “No”.

With `C[C@H](N)C(=S)N[C@@H](COC(=O)C[C@@H](CN)c1ccc(Cl)cc1)C(=O)O` [Compound 10, (S)-3-((R)-4-amino-3-(4-chlorophenyl)butanoyloxy)-2-((S)-2-aminopropanethioamido)propanoic acid], the Ki on rabbit PepT1 [3] turned out to be 1870 ± 260 µM. In addition, on rabbit PepT1 [5], the “Trans-stimulated efflux?” value is given as “No”.

The molecule `COc1c(C)c2c(c(O)c1C/C=C(\C)CCC(=O)OC[C@H](NC(=S)[C@H](C)N)C(=O)O)C(=O)OC2` [Compound 11, (S)-2-((S)-2-aminopropanethioamido)-3-((E)-6-(4-hydroxy-6-methoxy-7-methyl-3-oxo-1,3-dihydroisobenzofuran-5-yl)-4-methylhex-4-enoyloxy)propanoic acid] returned a Ki at rabbit PepT1 [3] of 210 ± 80 µM. In addition, the “Trans-stimulated efflux?” value at rabbit PepT1 [5] was “only weakly triggered efflux and Weak”.

As to `C[C@H](NC(=O)[C@@H](N)Cc1ccccc1)C(N)=S` [FSA, PheΨ[CS-NH]-Ala, reference compound], the Papp at 1 h, 2 mM in data set [1] was 30 ± 5 nm/s. On rabbit PepT1 [3], this molecule had a Ki of 320 ± 80 µM. For the same molecule, the “Trans-stimulated efflux?” value at rabbit PepT1 [5] is on record as “No”.

For `C[C@H](NC(=O)[C@@H](N)Cc1c[nH]c2ccccc12)C(=O)O` [L-Trp-L-Ala, reference compound] (H-Trp-Ala-OH), the half-life at 0.5 mM in [4] is 0.15 h.

Turning to `CC(C)c1cccc(C(C)C)c1O` [propofol], the Oral bioavailability entry in data set [7] and in [8] was “no oral bioavailability” each time.

For the molecule “(S)-2-((S)-2-Amino-thiopropionylamino)-succinic acid 4-(2-{2-[2-(2-acetoxy-benzoyloxy)-ethoxy]-ethoxy}-ethyl) ester [Compound 4]”, the “Stability in assay buffer” value in data set [9] is “limited stability”.

Take “(S)-2-((S)-2-Amino-thiopropionylamino)-succinic acid 4-[2-(2-amino-6-oxo-1,6-dihydro-purin-9-ylmethoxy)-ethyl] ester [Compound 5]”: the “Stability in assay buffer” value in data set [9] is “limited stability”.

What is called melting point is the temperature, or range, at which the solid turns liquid. A word on the Papp: it is the rate of passage across a membrane or cell layer, normalised by area and donor concentration. For orientation: AUC means concentration integrated over time. Low readings indicate low exposure, high ones high exposure. Broadly, the Cmax is the peak of the concentration-time curve. One may read the Tmax as the time at which the peak concentration occurs. The Ki is a dissociation constant, usually derived from enzyme kinetics or from competition with a known ligand. High values mean a looser hold on the target, low ones a stronger hold on the target.
